{
  "source": "patent US6159963A",
  "about": "“Method for treating substance abuse” (Eli Lilly and Company, priority 1996, dated 2000)",
  "key": {"5-HT1C receptor": {"tested_on": "5-HT1C receptor", "assay": "pharmacological studies, 5-HT1C receptor activity"}, "patients": {"tested_on": "patients", "assay": "double-blind multicenter clinical trial, olanzapine versus placebo", "format": "in vivo, human", "settings": "patients randomized to olanzapine or placebo", "source_text": "A double-blind multicenter clinical trial was designed to assess the safety and efficacy of olanzapine. Patients were randomized to olanzapine or placebo."}, "[1]": {"tested_on": "muscarinic cholinergic receptor", "assay": "pharmacological studies, muscarinic cholinergic receptor activity"}},
  "data": [
    {"smiles": "Cc1cc2c(s1)Nc1ccccc1N=C2N1CCN(C)CC1", "note": "[olanzapine, 2-methyl-4-(4-methyl-1-piperazinyl)-10H-thieno[2,3-b][1,5]benzodiazepine]", "values": [
      {"measurement": "activity at the 5-HT1C receptor", "setting": "5-HT1C receptor", "value": "active"},
      {"measurement": "usefulness for treatment of addictive substance withdrawal (clinical observations)", "setting": "patients", "value": "can be useful for the treatment of addictive substance withdrawal"},
      {"measurement": "muscarinic cholinergic receptor activity", "setting": "[1]", "value": "has muscarinic cholinergic receptor activity"}
    ]}
  ]
}
